One data set relates to BALB/c mice. Kind of data set: Acute toxicity in BALB/c mice, single tail-vein injection (Example 9). The settings on record: single intravenous injection. The format is in vivo, mouse. The source says: In this example, Compound 23 and Compound 24 were detected for their acute toxicities, and the detection method was as follows.
Experimental procedure: 40 BALB/c mice, half male and half female, were randomly divided into groups after weight measurement. The weight of an individual should be within the range of the average body weight±20%. Animals should be allowed to acclimatize to the environment for at least 5 days before the test, and healthy (if female, it must be un-pregnant) mice were selected as test animals. The main inspections during the acclimatization period included: whether it met the quality indicators required at the time of ordering; general state check; and whether the weight reached the weight range required by the test. Unqualified abnormal animals were not included in this test. A single tail-vein injection was administrated to the mice at a low, medium, or high dose, which was 5 mg/kg, 10 mg/kg, or 40 mg/kg respectively according to a blank preparation pre-test. An equal volume of vehicle was intravenously injected to establish a control group.
Mice were observed once respectively at 0 to 2 hours and 4 to 6 hours after each administration. If toxic symptoms occurred, the number of observations could be increased. (2) Gross anatomy observation: All the surviving mice in each group were dissected and observed on the 8th day of the experiment. The abnormal organs and tissues found in the observation of administration sites and in the gross anatomy observation that might be related to the test samples were photographed and recorded. (3) Disposal of dying animals: The state of the mouse and the observation time were recorded, and the body weight was measured. (4) Disposal of dead animals: The time of death or the time when the death was found was recorded, the body weight was measured, and then the dissection was quickly performed for gross observation to speculate the cause of death.

The subject of data set [1] is xylene-induced auricular swelling in mice. Kind of data set: Xylene-induced auricular swelling in mice (Example 7). Type of data set: in vivo, mouse. Particulars: 7 consecutive days, xylene on 8th day. On the procedure: In this example, the glaucocalyxin A derivatives and pharmaceutically acceptable salts thereof were detected for the inhibitory effect thereof on xylene-induced auricular swelling in mice. Compound 23 was used as an exemplary compound, and the detection method was as follows.
20 mice were randomly divided into 4 groups with 5 mice in each group, which were blank control group, 30 mg/kg dexamethasone treatment group, Compound 23 (10 mg/kg) treatment group, and Compound 23 (50 mg/kg) treatment group, respectively. 0.25-0.3 mL depending on the body weight was intragastrically administrated for 7 consecutive days, and an equal volume of 5% glucose injection was administrated to the blank group. On the 8th day, xylene was used to produce a model of auricular swelling in the right auricle of mice. 15 μl of xylene, an inflammatory inducer, was applied to both sides of the right auricle of each mouse, and the left auricle was left un-treated as a normal auricle control. After 1 hour, the mice were sacrificed by cervical dislocation. Both auricles were cut off along the auricle baseline, and then punched at the same position by using a puncher with a diameter of 8 mm to give auricle pieces, which were then weighed on an electronic analytical balance. The auricular swelling rate and the auricular swelling inhibitory rate were calculated according to the following formula. […]

Regarding `Br.C=C1C(=O)C23C(O)CC4C(C)(C)c5nc(N(C)C)sc5CC4(C)C2CCC1C3O` (stereo not drawn) [Compound 23], in the data set on BALB/c mice, the comparative safety result is recorded as “safer than Compound 24”. The toxic side effects result with BALB/c mice (5 mg/kg), in the data set on BALB/c mice (10 mg/kg) and in the data set with BALB/c mice (40 mg/kg) was “No obvious toxic side effects” in each case. The “weight loss and decreased diet” value is “no significant weight loss and decreased diet” in the data set with BALB/c mice (5 mg/kg); “no significant weight loss and decreased diet” in the data set on BALB/c mice (10 mg/kg); “no significant weight loss and decreased diet” in the data set with BALB/c mice (40 mg/kg). In addition, the “inhibition of auricular swelling” value in data set [1] (10 mg/kg intragastric) and in data set [1] (50 mg/kg intragastric) was “effective” each time.

The record behind these values is patent US11406622B2, “Glaucocalyxin a derivative, pharmaceutically acceptable salt thereof, or pharmaceutical composition thereof and uses thereof in preparation of drugs for treating psoriasis” (SUZHOU PHARMAVAN CO., LTD., priority 2017, dated 2022).
